Assay results reported in patent US12173007B2, “Imidazopyridazine IL-17 inhibitor compounds” (Janssen Pharmaceutica NV, priority 2021, dated 2024).

Assays:
[1] = biological target: IL-17A(FLAG-Tagged): IL-17RA(His-Tagged) binding (Homo sapiens, UniProt Q16552, K93Q); experiment: IL-17A(FLAG-tagged):IL-17RA(His-tagged) binding disruption Eu-HTRF assay, Protocol 1; conditions: FLAG-IL-17A 2.5 nM; average if tested more than once
Text: IL-17A(FLAG-Tagged): IL-17RA(His-Tagged) Binding Disruption Eu-HTRF Assay
An antibody directed against the FLAG tag of IL-17A (SEQ ID NO: 1) is labeled with the HTRF donor chromophore (Europium-cryptate). IL-17A is present as a dimer that is “locked into” this quaternary structure due to the formation of loop-spanning […] disulfide bridges. The construct of IL-17RA used in the assay excludes the […] portion of the receptor and is fused to a C-terminal 10×His tag (SEQ ID NO:2). An antibody directed against the His tag of the IL-17RA chimera is labeled with the HTRF acceptor chromophore (“D2”). The fluorescence-resonance energy transfer (FRET) depends on the vicinity of the donor chromophore to the acceptor, and interruption of the binding between the IL-17A and IL-17RA causes the reduction/loss of FRET. Therefore, this assay allows to evaluate the compound effect on the binding IL-17A and IL-17RA by monitoring the fluorescence intensity of donor vs acceptor. The assay was run using either Protocol 1 or Protocol 2 as described below.
Protocol 1. 40 nl of 2-fold serial diluted compound solution for total 22 dilution points is added into each well of a 1536-well, white, low-volume, non-binding plate (Greiner #782904), then 2 μl of FLAG tagged IL-17A at 2×final concentration (2.5 nM) in solution of PBS+0.01% Triton-X100 is added to each well. The assay plate is briefly centrifuged then incubated for 1 h at rt. A mixed solution is prepared containing 2×5 nM 10HIS×IL-17RA, 2×2.5 nM Eu-anti-FLAG (CISBIO), 2×5 nM D2-anti-HIS (CISBIO) in PBS+0.01% Triton-X100+200 mM Potassium Fluoride (Sigma 60238) and 2 μl of mix is added to each well of the assay plate. The plate is briefly centrifuged then incubated for 2 h at rt. The HTRF intensities at the wavelength of donor (620 nm) and acceptor (665 nm) are measured using BMG Pherastar. The ratio between intensities at two wavelengths is calculated and plotted against the compound concentration and the data is fitted to a one-site competition model to yield IC50 of the compound.

[2] = test system: IL-17A-induced G-CSF production in human normal keratinocyte (NHK); experiment: NHK assay: IL-17A-induced G-CSF production in normal human keratinocytes; type: cell-based; conditions: Homo sapiens, Keratinocyte, 24 h, IL-17A 5 ng/mL, G-CSF by HTRF, average if tested more than once
Procedure, shortened: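 Compound titrations are first mixed with recombinant human IL-17A for 1 h at room temperature. The mixture goes onto adult normal human keratinocytes (final IL-17A 5 ng/mL, 5% FBS, 0.2% DMSO) for 24 h at 37 °C. Secreted G-CSF is then measured by HTRF and IC50 fitted.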

Chain of UniProt Q16552 (Q16552 with tags, fused parts or gaps K93Q): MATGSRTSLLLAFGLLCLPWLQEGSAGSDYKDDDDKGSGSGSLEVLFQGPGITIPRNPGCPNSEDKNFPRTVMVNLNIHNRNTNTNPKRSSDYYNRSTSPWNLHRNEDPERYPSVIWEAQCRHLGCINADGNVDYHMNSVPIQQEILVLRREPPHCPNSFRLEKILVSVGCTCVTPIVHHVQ

Row | Compound | IC50 [1] [nM] | IC50 [2] [nM]
1 | Cc1nonc1C(=O)N[C@H](c1cn2ncc([C@@H](C3CC3)N3CC(F)(F)CNC3=O)cc2n1)C1CCC(F)(F)CC1 [Example 8, N—((S)-(7-((R)-Cyclopropyl(5,5-difluoro-2-oxotetrahydropyrimidin-1(2H)-yl)methyl)imidazo[1,2-b]pyridazin-2-yl)(4,4-difluorocyclohexyl)methyl)-4-methyl-1,2,5-oxadiazole-3-carboxamide] | < 50 | 50 to 100
2 | [2H]C([2H])([2H])C([2H])([2H])n1nccc1C(=O)N[C@H](c1cn2ncc([C@@H](C3CC3)N3CC(F)(F)CNC3=O)cc2n1)C1CCC(F)(F)CC1 [Example 9, N—((S)-(7-((R)-Cyclopropyl(5,5-difluoro-2-oxotetrahydropyrimidin-1(2H)-yl)methyl)imidazo[1,2-b]pyridazin-2-yl)(4,4-difluorocyclohexyl)methyl)-1-(ethyl-d5)-1H-pyrazole-5-carboxamide] | < 50 | < 50
3 | CC(C)n1nccc1C(=O)N[C@H](c1cn2ncc([C@@H](C3CC3)N3CC(F)(F)CNC3=O)cc2n1)C1CCC(F)(F)CC1 [Example 10, N—((S)-(7-((R)-Cyclopropyl(5,5-difluoro-2-oxotetrahydropyrimidin-1(2H)-yl)methyl)imidazo[1,2-b]pyridazin-2-yl)(4,4-difluorocyclohexyl)methyl)-1-isopropyl-1H-pyrazole-5-carboxamide] | 50 to 100 | < 50
4 | COC[C@H](c1cnn2cc([C@@H](NC(=O)c3nonc3C)C3CCC(F)(F)CC3)nc2c1)N1CC(F)(F)CNC1=O [Example 12, N—((S)-(7-((S)-1-(5,5-Difluoro-2-oxotetrahydropyrimidin-1(2H)-yl)-2-methoxyethyl)imidazo[1,2-b]pyridazin-2-yl)(4,4-difluorocyclohexyl)methyl)-4-methyl-1,2,5-oxadiazole-3-carboxamide] | < 50 | < 50
5 | [2H]C([2H])([2H])C([2H])([2H])n1nccc1C(=O)N[C@H](c1cn2ncc([C@@H](COC)N3CC(F)(F)CNC3=O)cc2n1)C1CCC(F)(F)CC1 [Example 13, N—((S)-(7-((S)-1-(5,5-Difluoro-2-oxotetrahydropyrimidin-1(2H)-yl)-2-methoxyethyl)imidazo[1,2-b]pyridazin-2-yl)(4,4-difluorocyclohexyl)methyl)-1-(ethyl-d5)-1H-pyrazole-5-carboxamide] | 50 to 100 | < 50
6 | COC[C@H](c1cnn2cc([C@@H](NC(=O)c3ccnn3C(C)C)C3CCC(F)(F)CC3)nc2c1)N1CC(F)(F)CNC1=O [Example 14, N—((S)-(7-((S)-1-(5,5-Difluoro-2-oxotetrahydropyrimidin-1(2H)-yl)-2-methoxyethyl)imidazo[1,2-b]pyridazin-2-yl)(4,4-difluorocyclohexyl)methyl)-1-isopropyl-1H-pyrazole-5-carboxamide] | 50 to 100 | < 50
7 | CC(C)(OC[C@H](NC(=O)c1nonc1C1CC1)c1cn2ncc(CN3CC(F)(F)CNC3=O)cc2n1)C(F)(F)F [Example 17, (R)-4-Cyclopropyl-N-(1-(7-((5,5-difluoro-2-oxotetrahydropyrimidin-1(2H)-yl)methyl)imidazo[1,2-b]pyridazin-2-yl)-2-((1,1,1-trifluoro-2-methylpropan-2-yl)oxy)ethyl)-1,2,5-oxadiazole-3-carboxamide] | < 50 | < 50
8 | O=C(N[C@H](c1cn2ncc(CN3CCCNC3=O)cc2n1)C1CCC(F)(F)CC1)c1nonc1C1CC1 [Example 18, (S)-4-Cyclopropyl-N-((4,4-difluorocyclohexyl)(7-((2-oxotetrahydropyrimidin-1(2H)-yl)methyl)imidazo[1,2-b]pyridazin-2-yl)methyl)-1,2,5-oxadiazole-3-carboxamide] | > 100 | > 100
9 | CC(C)n1nccc1C(=O)N[C@H](c1cn2ncc(CN3CCCNC3=O)cc2n1)C1CCC(F)(F)CC1 [Example 19, (S)—N-((4,4-Difluorocyclohexyl)(7-((2-oxotetrahydropyrimidin-1(2H)-yl)methyl)imidazo[1,2-b]pyridazin-2-yl)methyl)-1-isopropyl-1H-pyrazole-5-carboxamide] | > 100 | > 100
10 | O=C(N[C@H](c1cn2ncc(CN3CC(F)(F)CNC3=O)cc2n1)C1CCC(F)(F)CC1)c1nonc1C1CC1 [Example 20, (S)-4-Cyclopropyl-N-((7-((5,5-difluoro-2-oxotetrahydropyrimidin-1(2H)-yl)methyl)imidazo[1,2-b]pyridazin-2-yl)(4,4-difluorocyclohexyl)methyl)-1,2,5-oxadiazole-3-carboxamide] | < 50 | < 50
11 | CC(C)n1nccc1C(=O)N[C@H](c1cn2ncc(CN3CC(F)(F)CNC3=O)cc2n1)C1CCC(F)(F)CC1 [Example 21, (S)—N-((7-((5,5-Difluoro-2-oxotetrahydropyrimidin-1(2H)-yl)methyl)imidazo[1,2-b]pyridazin-2-yl)(4,4-difluorocyclohexyl)methyl)-1-isopropyl-1H-pyrazole-5-carboxamide] | > 100 | < 50

More lines, main results first:

Row | IC50 [1] [nM] | Compound | IC50 [2] [nM]
12 | 50 to 100 | O=C(N[C@H](c1cn2ncc(CN3CC(F)(F)CNC3=O)cc2n1)C1CCC(F)(F)CC1)c1conc1COC(F)F [Example 22, (S)—N-((7-((5,5-Difluoro-2-oxotetrahydropyrimidin-1(2H)-yl)methyl)imidazo[1,2-b]pyridazin-2-yl)(4,4-difluorocyclohexyl)methyl)-3-((difluoromethoxy)methyl)isoxazole-4-carboxamide] | 50 to 100
13 | > 100 | CC(C)n1ncnc1C(=O)N[C@H](c1cn2ncc(CN3CC(F)(F)CNC3=O)cc2n1)C1CCC(F)(F)CC1 [Example 23, (S)—N-((7-((5,5-Difluoro-2-oxotetrahydropyrimidin-1(2H)-yl)methyl)imidazo[1,2-b]pyridazin-2-yl)(4,4-difluorocyclohexyl)methyl)-1-isopropyl-1H-1,2,4-triazole-5-carboxamide] | > 100
14 | > 100 | O=C(N[C@H](c1cn2ncc(CN3CC(F)(F)CNC3=O)cc2n1)C1CCC(F)(F)CC1)c1cnn(CC2CC2)n1 [Example 24, (S)-2-(Cyclopropylmethyl)-N-((7-((5,5-difluoro-2-oxotetrahydropyrimidin-1(2H)-yl)methyl)imidazo[1,2-b]pyridazin-2-yl)(4,4-difluorocyclohexyl)methyl)-2H-1,2,3-triazole-4-carboxamide] | > 100
15 | 50 to 100 | [2H]C([2H])([2H])C([2H])([2H])n1nccc1C(=O)N[C@H](c1cn2ncc(CN3CC(F)(F)CNC3=O)cc2n1)C1CCC(F)(F)CC1 [Example 25, (S)—N-((7-((5,5-Difluoro-2-oxotetrahydropyrimidin-1(2H)-yl)methyl)imidazo[1,2-b]pyridazin-2-yl)(4,4-difluorocyclohexyl)methyl)-1-(ethyl-d5)-1H-pyrazole-5-carboxamide] | < 50
16 | < 50 | O=C(N[C@H](c1cn2ncc(CN3CC(F)(F)CNC3=O)cc2n1)C1CCC(F)(F)CC1)c1nonc1OCC(F)F [Example 26, (S)—N-((7-((5,5-Difluoro-2-oxotetrahydropyrimidin-1(2H)-yl)methyl)imidazo[1,2-b]pyridazin-2-yl)(4,4-difluorocyclohexyl)methyl)-4-(2,2-difluoroethoxy)-1,2,5-oxadiazole-3-carboxamide] | < 50
17 | > 100 | O=C(N[C@H](c1cn2ncc(CN3CC(F)(F)CNC3=O)cc2n1)C1CCC(F)(F)CC1)c1cnn(CCC(F)(F)F)n1 [Example 27, (S)—N-((7-((5,5-Difluoro-2-oxotetrahydropyrimidin-1(2H)-yl)methyl)imidazo[1,2-b]pyridazin-2-yl)(4,4-difluorocyclohexyl)methyl)-2-(3,3,3-trifluoropropyl)-2H-1,2,3-triazole-4-carboxamide] | > 100
18 | 50 to 100 | O=C(N[C@H](c1cn2ncc(CN3CCCCNC3=O)cc2n1)C1CCC(F)(F)CC1)c1nonc1C1CC1 [Example 30, (S)-4-Cyclopropyl-N-((4,4-difluorocyclohexyl)(7-((2-oxo-1,3-diazepan-1-yl)methyl)imidazo[1,2-b]pyridazin-2-yl)methyl)-1,2,5-oxadiazole-3-carboxamide] | > 100
